For assay [1], the system named is α1aAR F308 / F312 substituted receptors. The conditions noted are these: cited from earlier work.
In assay [2] the test system is human α1aAR SNPs. The conditions noted are these: receptors containing any SNP, high expressing clones.
The target of assay [3] is T1, human α1aAR WT (Homo sapiens, UniProt P35348).
T1 construct: expressed in transfected cells
T1 sequence (P35348 1-466): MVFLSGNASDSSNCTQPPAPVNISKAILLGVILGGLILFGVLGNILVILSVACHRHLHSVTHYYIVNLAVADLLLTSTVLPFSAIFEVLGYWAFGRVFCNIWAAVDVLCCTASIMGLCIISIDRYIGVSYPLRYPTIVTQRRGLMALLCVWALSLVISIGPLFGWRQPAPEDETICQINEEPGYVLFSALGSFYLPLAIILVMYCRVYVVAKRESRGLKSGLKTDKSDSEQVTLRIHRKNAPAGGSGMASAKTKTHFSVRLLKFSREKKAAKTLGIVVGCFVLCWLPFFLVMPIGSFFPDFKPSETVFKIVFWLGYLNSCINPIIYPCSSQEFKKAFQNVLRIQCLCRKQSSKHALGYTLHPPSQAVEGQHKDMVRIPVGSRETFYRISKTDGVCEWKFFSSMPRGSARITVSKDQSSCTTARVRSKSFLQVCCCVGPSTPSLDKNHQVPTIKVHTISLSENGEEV
Briefly: NE-induced desensitization of IP response, WT. In kind it is cell-based. The conditions noted are these: 10 min 10 μM NE pretreatment, compared with unpretreated.
Procedure: (§3) The extent of desensitization was expressed as percent of reduction of IP response in pretreated cells compared with the response in naive cells. n=3-6. […] High-expression clones. […] Low-expression clones. Measurement of Intracellular Inositol Phosphate (IP) Production. […] Measurement of intracellular IP production was performed under serum-free conditions. […] For all experiments, membranes were collected for receptor quantititation and cells were counted at the time of assay.

Assay [4] deals with human α1aAR SNPs. Nature of the assay: NE-stimulated IP production, transiently expressed polymorphic receptors. In kind it is cell-based. Particulars: any polymorphic receptor, transient expression 1.30-1.98 pmol/mg protein.
Procedure: Effect of human α1aAR SNPs on IP signaling in transiently transfected rat-1 fibroblasts (receptor densities 1.30-1.98 pmol/mg protein). […] For each construct, IP assay, binding assay and cell number were measured in paralleled plates. […] Basal IP release.
Transient transfection was also used to express receptors for binding and IP experiments in order to verify consistent behavior using alternative methods of protein expression.
Measurement of Intracellular Inositol Phosphate (IP) Production. Rat-1 cells expressing either the WT or mutated α1aAR grown on 12-well plates were labeled with [^3H]inositol for 20-24 h with 2.5 μCi/ml in complete DMEM. Measurement of intracellular IP production was performed under serum-free conditions. […] For all experiments, membranes were collected for receptor quantititation and cells were counted at the time of assay.
Assay [5] concerns human α1aAR SNPs. Nature of the assay: NE-induced desensitization of IP response, receptors with any SNP. Particulars: high or low expression level. In kind it is cell-based.
Procedure: as §3
Assay [6] addresses T1, human α1aAR WT. Briefly: [125I]HEAT saturation binding on membranes, WT high expressing clone. The conditions noted are these: membranes from WT α1aAR high expressing clone, rat-1 fibroblasts, 1.77±0.24 pmol/mg protein. The protocol:
(§1) Cell Culture and Transfection. Rat-1 fibroblasts were cultured in DMEM supplemented with 10% FBS at 37° C. Cells were transfected with either the WT (reference sequence with all major alleles, GenBank accession number L31774) or mutated α1aAR in pcDNA3 by calcium phosphate precipitation. For stable transfection, clones resistant to G418 (0.8 mg/ml) were isolated and tested for receptor expression. Two different expression levels were chosen for receptor functional investigation. Low receptor expression level was defined a priori as <0.5 pmol/mg total protein, while high-level expression was defined as >1.5 pmol/mg protein.
(§2) Membrane Preparation and Radioligand Binding. Rat-1 membrane preparation and ligand binding assay using the α1AR selective antagonist, [^125I]HEAT, were performed as previously described (Schwinn et al, J. Pharmacol. Exp. Ther. 272:134-142 (1995)).
Pharmacological Characterization. In order to examine whether these polymorphic α1aARs have altered ligand binding characteristics, saturation binding isotherms were first performed to determine the dissociation constant (Kd) for the antagonist [^125I]HEAT, followed by competition assays designed to determine binding affinities for a series of α1aAR agonists and antagonists.

Assay [7] addresses human α1aAR SNPs. Briefly: [125I]HEAT saturation binding on membranes, receptors containing each SNP. The conditions noted are these: expression 1.53-2.37 pmol/mg. On the procedure:
In Vitro Site-Directed Mutagenesis in the aoclar. Site-directed mutagenesis was utilized to introduce mutations corresponding to each SNP in hemagglutinin-tagged human α1aAR previously placed in the expression vector pcDNA3 (Price et al, J. Biol. Chem. 277:9570-9579 (2002)). Mutagenesis was performed using the QuickChange™ Site-Directed Mutagenesis Kit (Stratagene) as recommended by the manufacture. All mutations were confirmed by DNA sequencing (Duke University DNA Analysis Facility).
as §1, §2
Pharmacological Characterization. […]

For assay [8], the system named is α1aAR F163 (TM4) / F187 (TM5) mutants. The conditions noted are these: Waugh et al 2000; cited from earlier work.
Another assay has as its target T2, human α1aAR SNP V311I (Homo sapiens, UniProt P35348, V311I).
T2 construct: expressed in transfected cells
T2 sequence (P35348 1-466 V311I): T1 sequence (P35348 1-466) with V311I
Nature of the assay: Competition binding vs [125I]HEAT, SNP V311I. The conditions noted are these: high expressing clone.

Molecules are shown by their SMILES. Numbering of substitutions follows the chain as printed. Like-named read-outs stand apart in the source and are kept apart here.

On to `COc1cccc(OC)c1OCCNCC1COc2ccccc2O1` (stereo not drawn) [WB4101], for which the “affinity on substitution of F308 and F312” value (shortened to “affinity on substitution”) in assay [1] (Waugh et al 2001) is “decreased affinity”.

Regarding `COc1cc2nc(N3CCN(C(=O)c4ccco4)CC3)nc(N)c2cc1OC` [prazosin], the “affinity on substitution” value in assay [1] is “decreased affinity”. Take `Cc1cc(C(C)(C)C)c(O)c(C)c1CC1=NCCN1` [oxymetazoline]: the “change in affinity vs WT” value in the assay on human α1aAR SNPs [2] is “no change in the affinity”. On to `NC[C@H](O)c1ccc(O)c(O)c1` [NE, (−)-norepinephrine], for which the “lower IP production after NE pretreatment (desensitization)” value at human α1aAR WT [3] (high-expression level) is listed as 33.5±3.2%; at human α1aAR WT [3] (low-expression level) it was 31.0±3.1%. For the same molecule, the “maximum IP response vs WT” value in the assay with human α1aAR SNPs [4] was “no significant change”. Moreover, the “agonist-induced desensitization, SNP receptors vs WT” value with human α1aAR SNPs [5] was “no difference in agonist-induced desensitization”. On to `O=C1c2ccccc2CCC1CNCCc1ccc(O)c(I)c1` (stereo not drawn) [[^125I]HEAT, ^125I-(2-β-(4-hydroxyphenyl)-ethylamineomethyl)-tetralone], for which the Kd (in general, the constant that tells how readily two partners part at equilibrium) at human α1aAR WT [6] was 0.0421 ± 0.0065 nM.

As for `O=C1c2ccccc2CCC1CNCCc1ccc(O)c([125I])c1` (stereo not drawn) [[^125I]HEAT, ^125I-(2-β-(4-hydroxyphenyl)-ethylamineomethyl)-tetralone], at human α1aAR SNPs [7], the “Kd values for [125I]HEAT compared with WT” value is on record as “not significantly different from WT”. For the same molecule, the “affinity on substitution” value in assay [1] (Waugh et al 2001) is recorded as “not”.

For `COc1ccccc1N1CCN(CCCNc2c(C)c(=O)n(C)c(=O)n2C)CC1` [5-methylurapidil], the “affinity on substitution” value in assay [1] (Waugh et al 2001) was “decreased affinity”.

For `Cc1ccc(N(CC2=NCCN2)c2cccc(O)c2)cc1` [phentolamine], the “affinity on substitution” value in assay [1] (Waugh et al 2001) is on record as “not”.

In the case of `COc1ccccc1N1CCN(CCN2C(=O)CC3(CCCC3)CC2=O)CC1` [BMY7378], the “affinity on substitution” value in assay [1] (Waugh et al 2001) is “decreased affinity”.

For `CNC[C@H](O)c1ccc(O)c(O)c1` [epinephrine, (−)-epinephrine], the “decrease in affinity on mutation of F163 or F187” value in assay [8] is on record as 10 fold. The “Ki increase vs WT (decrease in receptor affinity)” value on human α1aAR SNP V311I is reported as roughly 3 fold.

Values taken from US20040265846A1, “Adrenergic receptors” (DUKE UNIVERSITY, priority 2002, published 2004).
